Values quoted from earlier work as cited in patent US20200281877A1, “METHOD FOR PREVENTION AND TREATMENT OF ACNE, ECZEMA, PSORIASIS, AND RELATED DERMATOLOGICAL CONDITIONS WITH COMPOSITION COMPRISING A SPHINGOLIPID AND SULPHUR COMPOUNDS” (priority 2018, published 2020).

System: SA_SCD (sphingolipid ceramide N-deacylase)

- hydrolytic activity of SA_SCD (optimal pH 6.0): strongly inhibited
- synthetic activity of SA_SCD (optimal pH 7.5): strongly inhibited
Structure (SMILES): [Zn+2] [bivalent zinc (Zn^2+)]
